One series deals with SARS-CoV-2. As to conditions: cited from earlier work.
The next series relates to ACE2. In kind it is cell-based, human.
Series [1] has as its system Reporter mNeonGreen SARS-CoV-2 virus (2019-nCoV/USA_WA1/2020). It is filed as cell-based.
For series [2], the system named is MCF7 cells. In kind it is cell-based.
For series [3], the system named is PANC1 cells. In kind it is cell-based.
The next series concerns A549 cells. It is filed as cell-based, human.
Series [4] relates to MCF7 cells. It is filed as cell-based. The source holds these as a separate data set.
The subject of series [5] is PANC1 cells. It is filed as cell-based. The source holds these as a separate data set.
The test system of another series is LN18 cells. In kind it is cell-based.
Another series relates to MDA-MB-231 cells. It is filed as cell-based.
The test system of the next series is SARS-CoV-2 S1 protein. In kind it is cell-based.
Series [6] relates to SARS-CoV-2 S1 protein-ACE2. In kind it is binding.
Series [7] has as its system A375 cells. It is filed as cell-based.
The subject of series [8] is A375 cells.
The subject of series [9] is MCF7 cells.

Consider `CN(Cc1cnc2nc(N)nc(N)c2n1)c1ccc(C(=O)N[C@@H](CCC(=O)O)C(=O)O)cc1` [methotrexate], for which the SARS-CoV-2 replication result in the series on SARS-CoV-2 is on record as “reduced”.
With `O=C[C@@H](O)[C@@H](O)[C@H](O)[C@H](O)CO` [D-mannose], in the series with ACE2, the ACE2 expression entry is reported as “did not significantly change”. Besides, in series [1], the cytoprotection entry is “significant cytoprotection” and the “reduction in viral replication” value is listed as around 70%. Moreover, in the series with MCF7 cells [2], the ECL binding entry was “generally reduced”, the MAL2 binding result is on record as “increasing”, the PNA binding entry is on record as “generally reduced” and the SNA binding result is reported as “increasing”. Besides, in the series with PANC1 cells [3], the ECL binding entry is given as “generally reduced”, the MAL2 binding entry was “increasing”, the PNA binding entry is listed as “generally reduced” and the SNA binding entry is on record as “increasing”. In addition, in the series with A549 cells, the ECL binding entry is reported as “significantly reduced”, the MAL2 binding result was “slightly enhancing”, the PNA binding result is listed as “minimal to no influence” and the SNA binding entry is on record as “minimal to no influence”. Besides, in the series on MCF7 cells [4], the “disialyl T antigen/T antigen ratio” value was “significantly enhanced” and the “sialylation of complex N-glycans” value is “sialic acids were added to multiple N-glycans”. For the same compound, in the series with PANC1 cells [5], the “disialyl T antigen/T antigen ratio” value was “significantly increased” and the “sialyl T antigen/T antigen ratio” value is “significantly increased”. Also, in the series on LN18 cells, the ECL binding entry is “significantly reduced”, the MAL2 binding entry is on record as “no effect on enhancing”, the PNA binding entry is given as “significantly reduced” and the SNA binding entry was “no effect on enhancing”. Besides, in the series with MDA-MB-231 cells, the ECL binding result was “significantly reduced”, the MAL2 binding result is given as “no effect on enhancing”, the PNA binding entry was “significantly reduced” and the SNA binding entry is “no effect on enhancing”. In addition, in the series on SARS-CoV-2 S1 protein, the “ECL binding to S1 protein” value is recorded as “significantly reduced”, the “MAL1 binding to S1 protein” value is listed as “moderately reduced”, the “MAL2 binding to S1 protein” value is recorded as “moderately reduced” and the “PNA binding to S1 protein” value is on record as “No PNA binding was observed”. Further, in the series on SARS-CoV-2 S1 protein, the “RSL binding to S1 protein” value is recorded as “significantly reduced” and the “SNA binding to S1 protein” value is given as “no change”. Also, the “ACE2 binding of S1 protein” value in [6] is on record as “reduced ACE2 binding”. Moreover, in the series on A549 ACE2+ cells, the cytotoxicity entry is given as “no observed cytotoxicity” and the total cell count entry was “negligible difference in cell count”.
`CC(=O)OC1O[C@H](CO)[C@@H](OC(C)=O)[C@H](O)[C@@H]1O` (stereo partly drawn) [1,4-di-O-acetyl-D-mannopyranose]: in the series on A375 cells [7], the ECL binding result was “no effect”, the MAL2 binding entry is “no effect”, the PNA binding result is “significantly reduced” and the SNA binding result is listed as “no effect”. For the same compound, the cell viability result in the series with A375 cells [8] was “did not have any influence on cell viability”.
Turning to `CC(=O)OC1O[C@H](CO)[C@@H](OC(C)=O)[C@H](OC(C)=O)[C@@H]1OC(C)=O` (stereo partly drawn) [1,2,3,4-tetra-O-Acetyl-D-mannopyranose], in the series on MCF7 cells [2], the ECL binding result is given as “moderately reduced”, the MAL2 binding result is “no effect”, the PNA binding entry is recorded as “significantly reduced” and the SNA binding entry is listed as “no effect”. The cell toxicity result in the series with MCF7 cells [9] is “induced cell toxicity at a higher concentration”. In the series on MCF7 cells [9] (human), the “concentrations having no impact on cell viability” value is on record as “less than 0.7 mM”.
